ChEMBL document CHEMBL1201862, “PubChem BioAssay data set” (2004)
Calls of active or inactive are those of the source.

Experiments:
Mucolipin-3 = biological target: T1, Mucolipin-3 (Homo sapiens, UniProt Q8TDD5); test: Dose response cell-based high-throughput screening assay for agonists of the transient receptor potential channel ML3 (TRPML3). [Related pubchem assays: 1526, 1424, 1448 ]; type: functional
T1 sequence (Q8TDD5 whole entry): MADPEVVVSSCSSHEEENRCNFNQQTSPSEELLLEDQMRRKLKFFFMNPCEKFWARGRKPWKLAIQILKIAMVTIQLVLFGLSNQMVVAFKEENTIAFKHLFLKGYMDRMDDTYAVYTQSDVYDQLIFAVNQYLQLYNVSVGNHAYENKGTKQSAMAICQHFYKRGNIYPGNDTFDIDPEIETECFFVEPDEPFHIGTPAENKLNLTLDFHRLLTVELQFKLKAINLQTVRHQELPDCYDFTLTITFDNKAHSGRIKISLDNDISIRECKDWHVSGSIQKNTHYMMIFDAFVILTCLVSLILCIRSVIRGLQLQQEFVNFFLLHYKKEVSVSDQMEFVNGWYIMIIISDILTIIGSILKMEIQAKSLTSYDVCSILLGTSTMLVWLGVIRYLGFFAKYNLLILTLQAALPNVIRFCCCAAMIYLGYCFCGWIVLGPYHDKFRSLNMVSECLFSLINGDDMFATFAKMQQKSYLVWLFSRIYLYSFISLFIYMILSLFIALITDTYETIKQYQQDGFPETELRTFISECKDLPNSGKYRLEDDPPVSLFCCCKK

cells = type: functional, cell-based; conditions: HEK-CNG
[1] = biological target: DNA dC->dU-editing enzyme APOBEC-3A (Homo sapiens, UniProt P31941); test: Dose Response confirmation of small molecule APOBEC3A DNA Deaminase Inhibitors via a fluorescence-based single-stranded DNA deaminase assay. [Related pubchem assays (depositor defined):AID493011, AID493024]; type: functional
DNA dC->dU-editing enzyme APOBEC-3A, sequence (P31941 whole entry): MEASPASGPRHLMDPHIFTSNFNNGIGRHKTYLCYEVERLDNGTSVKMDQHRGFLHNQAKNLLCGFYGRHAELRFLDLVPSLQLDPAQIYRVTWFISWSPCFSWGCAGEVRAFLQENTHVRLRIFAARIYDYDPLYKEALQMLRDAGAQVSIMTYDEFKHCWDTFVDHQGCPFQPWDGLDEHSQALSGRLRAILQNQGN

Galanin receptor type 3 = Galanin receptor type 3 (Homo sapiens, UniProt O60755); test: Fluorescence-based cell-based primary high throughput dose response assay to identify antagonists of the Galanin Receptor 3 (GalR3).; type: functional
[2] = biological target: DNA dC->dU-editing enzyme APOBEC-3G (Homo sapiens, UniProt Q9HC16); type: functional;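 note: Dose-response counterscreen measuring inhibition of APOBEC3G DNA deaminase activity, run while confirming APOBEC3A inhibitors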
Ion channel NompC = Ion channel NompC (Danio rerio, UniProt Q7T1G6); test: Fluorescence counterscreen assay for TRPML3 agonists: dose response cell-based high-throughput screening assay to identify agonists of the transient receptor potential channel N1 (TRPN1). [Related pubchem assays: 1526, 1424, 1448 ]; type: functional
[3] = biological target: Acyl-homoserine lactone acylase PvdQ (Pseudomonas aeruginosa (strain LESB58), UniProt Q9I194); test: PvdQ acylase enzyme activity blockers – biochemical, fluorescence, plate reader and imaging, cherry-picks, dose response (AID 493231)
Acyl-homoserine lactone acylase PvdQ, sequence (Q9I194 24-193 limits assumed): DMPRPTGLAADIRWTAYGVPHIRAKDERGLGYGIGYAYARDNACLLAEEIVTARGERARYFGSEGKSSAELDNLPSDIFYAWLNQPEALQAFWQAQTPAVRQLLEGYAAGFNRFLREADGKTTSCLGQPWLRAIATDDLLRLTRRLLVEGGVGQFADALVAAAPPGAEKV
Acyl-homoserine lactone acylase PvdQ, sequence (Q9I194 217-762 limits assumed): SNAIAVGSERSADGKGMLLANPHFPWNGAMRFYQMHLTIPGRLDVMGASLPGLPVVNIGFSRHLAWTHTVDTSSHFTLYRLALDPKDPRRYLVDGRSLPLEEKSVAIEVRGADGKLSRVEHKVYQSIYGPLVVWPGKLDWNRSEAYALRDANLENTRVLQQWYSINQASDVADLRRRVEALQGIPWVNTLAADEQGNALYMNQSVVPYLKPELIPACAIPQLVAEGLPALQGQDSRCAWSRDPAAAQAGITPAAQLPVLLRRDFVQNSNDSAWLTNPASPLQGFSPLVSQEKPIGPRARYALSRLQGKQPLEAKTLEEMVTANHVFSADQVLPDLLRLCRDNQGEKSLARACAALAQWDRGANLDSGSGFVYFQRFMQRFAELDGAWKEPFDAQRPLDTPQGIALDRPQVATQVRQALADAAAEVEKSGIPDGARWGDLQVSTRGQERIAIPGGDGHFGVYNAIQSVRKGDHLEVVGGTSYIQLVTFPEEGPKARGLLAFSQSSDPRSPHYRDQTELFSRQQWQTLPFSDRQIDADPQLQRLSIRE

[4] = M. tuberculosis H37Rv growth inhibitors, H37Rv strain (AID 1626); type: functional
Vero [5] = test: cells; type: functional; conditions: Chlorocebus sabaeus
Vero [6] = test: cells; type: functional, cell-based; conditions: Chlorocebus sabaeus
HEK293 [7] = test: cells; type: functional, cell-based; conditions: Homo sapiens
HEK293 [8] = test: NOD2 signaling inhibitors in MDP-stimulated cells, cell-based, uHTS, luminescence (AID 2001); type: functional; conditions: Homo sapiens
Vero [9] = test: mammalian cell viability reduction – secondary assay, cytotoxicity control for West Nile virus antiviral project, dose response (AID 1650); type: functional; conditions: Chlorocebus sabaeus
HEK293 [10] = test: inhibition of NOD1-driven NF-kB reporter – cell-based, luminescence, uHTS, primary screen (AID 1578); type: functional; conditions: Homo sapiens
HEK293 [11] = test: cells; type: functional, cell-based; conditions: Homo sapiens; remark: listed apart in the source
[12] = A Cell Based Secondary Assay To Explore Cytotoxicity of Compounds that Sensitize Mycobacterium Tuberculosis to Beta-Lactam Antibiotics.; type: functional
[13] = biological target: Peroxisome proliferator-activated receptor gamma/Nuclear receptor coactivator 1 (Homo sapiens, UniProt P37231); type: functional;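 note: agonist potency as compounds enhance coactivator SRC-1 recruitment to PPARgamma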
Peroxisome proliferator-activated receptor gamma/Nuclear receptor coactivator 1, sequence (P37231 whole entry): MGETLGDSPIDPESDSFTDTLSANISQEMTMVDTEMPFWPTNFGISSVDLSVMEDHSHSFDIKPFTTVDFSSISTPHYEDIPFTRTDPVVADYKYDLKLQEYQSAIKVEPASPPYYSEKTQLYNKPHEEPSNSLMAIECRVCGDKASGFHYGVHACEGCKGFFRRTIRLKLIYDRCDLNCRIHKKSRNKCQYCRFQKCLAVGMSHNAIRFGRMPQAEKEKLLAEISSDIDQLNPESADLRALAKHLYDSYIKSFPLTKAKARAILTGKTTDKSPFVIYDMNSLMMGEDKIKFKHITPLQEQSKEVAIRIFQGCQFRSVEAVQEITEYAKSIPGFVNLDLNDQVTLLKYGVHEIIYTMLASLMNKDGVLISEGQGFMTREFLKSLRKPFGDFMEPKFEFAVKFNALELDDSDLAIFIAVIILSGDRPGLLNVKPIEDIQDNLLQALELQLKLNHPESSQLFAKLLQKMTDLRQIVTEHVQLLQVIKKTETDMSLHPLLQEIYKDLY
Peroxisome proliferator-activated receptor gamma/Nuclear receptor coactivator 1, sequence (Q15788 whole entry, further chain): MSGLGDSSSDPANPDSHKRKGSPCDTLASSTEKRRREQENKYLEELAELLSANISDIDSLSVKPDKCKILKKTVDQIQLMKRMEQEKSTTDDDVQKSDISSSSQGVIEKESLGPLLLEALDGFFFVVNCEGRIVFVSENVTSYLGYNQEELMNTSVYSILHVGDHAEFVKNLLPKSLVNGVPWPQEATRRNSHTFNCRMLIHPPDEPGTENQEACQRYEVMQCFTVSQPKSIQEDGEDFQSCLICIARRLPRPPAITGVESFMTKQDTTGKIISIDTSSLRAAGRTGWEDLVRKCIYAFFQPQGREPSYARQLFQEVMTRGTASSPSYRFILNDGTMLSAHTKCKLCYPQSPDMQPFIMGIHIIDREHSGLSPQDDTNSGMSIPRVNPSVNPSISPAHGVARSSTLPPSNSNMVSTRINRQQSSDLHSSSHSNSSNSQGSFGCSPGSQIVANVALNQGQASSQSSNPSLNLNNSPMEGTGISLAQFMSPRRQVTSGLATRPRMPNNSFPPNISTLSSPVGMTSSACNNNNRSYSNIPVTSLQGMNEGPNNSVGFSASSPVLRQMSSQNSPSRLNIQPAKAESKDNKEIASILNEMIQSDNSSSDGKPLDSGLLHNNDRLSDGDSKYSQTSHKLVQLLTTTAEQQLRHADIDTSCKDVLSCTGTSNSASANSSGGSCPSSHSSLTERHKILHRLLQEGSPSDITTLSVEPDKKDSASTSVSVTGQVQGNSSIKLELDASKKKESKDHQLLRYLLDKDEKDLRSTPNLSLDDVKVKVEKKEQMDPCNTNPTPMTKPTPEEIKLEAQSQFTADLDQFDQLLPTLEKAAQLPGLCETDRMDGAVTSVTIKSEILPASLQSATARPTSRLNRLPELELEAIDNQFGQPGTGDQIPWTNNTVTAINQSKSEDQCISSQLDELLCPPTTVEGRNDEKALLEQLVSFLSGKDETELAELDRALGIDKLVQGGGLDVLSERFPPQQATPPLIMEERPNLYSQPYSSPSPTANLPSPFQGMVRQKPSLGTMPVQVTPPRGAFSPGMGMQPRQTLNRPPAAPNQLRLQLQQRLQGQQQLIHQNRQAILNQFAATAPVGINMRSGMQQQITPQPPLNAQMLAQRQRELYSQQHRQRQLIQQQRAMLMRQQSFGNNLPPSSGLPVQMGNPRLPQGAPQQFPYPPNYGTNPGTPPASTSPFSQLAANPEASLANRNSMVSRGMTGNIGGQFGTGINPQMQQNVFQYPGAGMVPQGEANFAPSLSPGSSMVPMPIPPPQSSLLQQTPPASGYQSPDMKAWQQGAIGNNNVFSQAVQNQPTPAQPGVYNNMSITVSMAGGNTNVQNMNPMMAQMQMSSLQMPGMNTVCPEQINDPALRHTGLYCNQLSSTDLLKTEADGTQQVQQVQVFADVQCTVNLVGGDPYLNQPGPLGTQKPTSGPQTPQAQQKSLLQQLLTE

[14] = biological target: Peroxisome proliferator-activated receptor gamma/Nuclear receptor coactivator 2 (Homo sapiens, UniProt P37231); type: functional;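 note: agonist potency for raising coactivator recruitment to the receptor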
Peroxisome proliferator-activated receptor gamma/Nuclear receptor coactivator 2, sequence (P37231 whole entry): as the sequence (P37231 whole entry) above
Peroxisome proliferator-activated receptor gamma/Nuclear receptor coactivator 2, sequence (Q15596 whole entry, further chain): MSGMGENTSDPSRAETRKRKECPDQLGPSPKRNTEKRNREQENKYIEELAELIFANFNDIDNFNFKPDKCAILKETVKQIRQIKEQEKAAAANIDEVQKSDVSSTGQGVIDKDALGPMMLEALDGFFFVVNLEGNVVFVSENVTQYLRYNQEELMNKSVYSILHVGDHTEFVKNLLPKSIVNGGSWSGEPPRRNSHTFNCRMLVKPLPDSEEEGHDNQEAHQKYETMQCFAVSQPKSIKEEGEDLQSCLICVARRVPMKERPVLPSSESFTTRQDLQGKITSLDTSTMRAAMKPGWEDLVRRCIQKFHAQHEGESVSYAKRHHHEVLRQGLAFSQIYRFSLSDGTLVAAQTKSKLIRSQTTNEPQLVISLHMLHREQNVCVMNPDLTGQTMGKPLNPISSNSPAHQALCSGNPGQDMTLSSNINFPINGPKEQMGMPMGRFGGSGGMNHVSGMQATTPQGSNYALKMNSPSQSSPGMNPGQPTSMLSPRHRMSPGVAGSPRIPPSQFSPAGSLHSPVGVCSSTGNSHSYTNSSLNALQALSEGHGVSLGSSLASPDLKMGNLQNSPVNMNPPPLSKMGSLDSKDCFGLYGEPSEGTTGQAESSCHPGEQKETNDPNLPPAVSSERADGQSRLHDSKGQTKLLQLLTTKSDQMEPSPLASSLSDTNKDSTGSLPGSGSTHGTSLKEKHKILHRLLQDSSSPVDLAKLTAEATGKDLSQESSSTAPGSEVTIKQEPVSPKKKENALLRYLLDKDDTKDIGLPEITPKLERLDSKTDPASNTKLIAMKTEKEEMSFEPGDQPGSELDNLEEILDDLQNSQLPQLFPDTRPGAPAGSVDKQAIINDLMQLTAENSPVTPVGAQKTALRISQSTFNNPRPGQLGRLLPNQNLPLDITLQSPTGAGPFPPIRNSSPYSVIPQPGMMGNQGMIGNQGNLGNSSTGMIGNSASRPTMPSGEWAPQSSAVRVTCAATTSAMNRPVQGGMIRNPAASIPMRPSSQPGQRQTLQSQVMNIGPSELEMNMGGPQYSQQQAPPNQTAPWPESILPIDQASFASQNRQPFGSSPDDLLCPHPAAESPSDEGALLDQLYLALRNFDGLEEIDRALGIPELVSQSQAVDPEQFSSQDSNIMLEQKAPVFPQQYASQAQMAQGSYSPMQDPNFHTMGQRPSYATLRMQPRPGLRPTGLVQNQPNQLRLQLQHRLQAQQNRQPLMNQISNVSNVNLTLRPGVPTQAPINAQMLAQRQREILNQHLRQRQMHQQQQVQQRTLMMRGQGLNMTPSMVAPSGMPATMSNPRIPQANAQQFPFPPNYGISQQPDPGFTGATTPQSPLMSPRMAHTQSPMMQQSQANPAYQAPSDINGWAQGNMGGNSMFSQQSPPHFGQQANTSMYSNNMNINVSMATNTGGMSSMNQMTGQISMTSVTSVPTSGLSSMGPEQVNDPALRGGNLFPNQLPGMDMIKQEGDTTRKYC

[15] = biological target: Peroxisome proliferator-activated receptor gamma/Nuclear receptor coactivator 3 (Homo sapiens, UniProt P37231); type: functional;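 note: agonist potency for raising coactivator recruitment to the receptor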
[16] = CCR5-tropic HIV-1 fusion blockers – cell-based, CCR5-tropic Env, dose response (AID 2279); type: functional
[17] = HEK-293T viability loss after treatment – luminescence, T-cell screen hits, cytotoxicity control for TCR NF-kB inhibitor project, dose response (AID 489026); type: functional, cell-based;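 note: cells exposed to compound about 14 hours before the viability readout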
[18] = reduction of Shn3 3'UTR-driven luciferase in osteoblasts – cell-based, Clone20 osteoblasts, firefly luciferase, cherry-picked, dose response (AID 624132); type: functional;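 note: firefly luciferase luminescence from reporter carrying the Shn3 3'UTR in osteoblasts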
[19] = non-specific 3'UTR reporter inhibition in Clone20-Shn3RL – cell-based, Renilla luciferase, cherry-picked, counter-screen for Shn3 inhibitor project, dose response (AID 624133); type: functional
HEK293 [20] = test: EBV LMP1 TES2 canonical NF-kB signalling blockers – cell-based, HEK293, luciferase, cherry-pick, dose response (AID 588343); type: functional; conditions: Homo sapiens
[21] = biological target: T2, Probable nicotinate-nucleotide adenylyltransferase (Staphylococcus aureus (strain N315), UniProt P65502); type: functional, Staphylococcus aureus subsp. aureus N315;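 for IC50 Mean: confirmatory dose-response retesting of NadD inhibitor hits first found in an ultra-high-throughput screen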
T2 sequence (P65502 whole entry): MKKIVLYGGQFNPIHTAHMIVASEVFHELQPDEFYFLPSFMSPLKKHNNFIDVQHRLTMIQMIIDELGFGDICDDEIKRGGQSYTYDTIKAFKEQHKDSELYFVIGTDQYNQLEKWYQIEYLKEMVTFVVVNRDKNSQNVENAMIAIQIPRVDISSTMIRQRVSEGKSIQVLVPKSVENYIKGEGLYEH

Fatty acid synthase [22] = biological target: T3, Fatty acid synthase (Homo sapiens, UniProt P49327); test: inhibition of human FAS-TE enzyme activity – biochemical, endpoint fluorescence intensity, uHTS hits, dose response (AID 624327); type: functional;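 note: fluorescence from hydrolysis of an O-methyl fluorescein acyl ester substrate by the enzyme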
[23] = biological target: T2, Probable nicotinate-nucleotide adenylyltransferase; type: functional, Staphylococcus aureus subsp. aureus N315; conditions: read-out: IC50_Mean
Fatty acid synthase [24] = biological target: T3, Fatty acid synthase; test: inhibition of human FAS-TE enzyme activity – biochemical, kinetic fluorescence intensity, dose response (AID 624326); type: functional;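 note: rate of fluorescence rise from hydrolysis of a fluorogenic O-methyl fluorescein ester substrate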
Streptococcus = test: GAS UMAA2166 growth inhibition – luminescence, BacTiterGlo, counter-screen for streptokinase expression inhibitor project, dose response (AID 1915); type: functional, organism-based;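 note: potency for reduction of bacterial viability or growth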
[25] = system: Streptococcus sp. 'group A'; test: Streptococcus pyogenes SK(-)GAS viability under kanamycin – luminescence, BacTiterGlo, confirmation, counter-screen for streptokinase expression inhibitor project, dose response (AID 1900); type: functional, organism-based
[26] = biological target: Voltage-gated inwardly rectifying potassium channel KCNH2 (Homo sapiens, UniProt Q12809); test: concentration-dependent hERG rescue from blockers – cell-based, thallium flux, dose response (AID 2121); type: ADME
Streptokinase A = biological target: T4, Streptokinase A (Streptococcus pyogenes serotype M1, UniProt P10520); test: viability-normalized secreted streptokinase activity reduction – plasminogen activation absorbance, OD405, dose response (AID 1914); type: functional, Streptococcus pyogenes M1 GAS;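 note: secreted streptokinase activity via plasminogen activation per viability signal from cell pellet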
T4 sequence (P10520 whole entry): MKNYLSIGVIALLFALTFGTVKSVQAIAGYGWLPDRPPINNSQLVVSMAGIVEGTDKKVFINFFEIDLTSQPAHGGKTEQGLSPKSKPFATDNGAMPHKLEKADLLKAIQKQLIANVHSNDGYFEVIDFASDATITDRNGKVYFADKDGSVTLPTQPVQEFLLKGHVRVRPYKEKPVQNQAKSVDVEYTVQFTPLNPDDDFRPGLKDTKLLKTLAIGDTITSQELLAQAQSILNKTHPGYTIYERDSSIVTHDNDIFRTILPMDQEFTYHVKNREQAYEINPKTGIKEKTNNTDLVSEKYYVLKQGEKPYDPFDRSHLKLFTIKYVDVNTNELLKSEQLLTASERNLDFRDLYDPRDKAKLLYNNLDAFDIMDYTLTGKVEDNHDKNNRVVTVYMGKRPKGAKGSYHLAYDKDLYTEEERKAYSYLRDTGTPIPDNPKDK

[27] = biological target: G-protein coupled receptor 55 (Homo sapiens, UniProt Q9Y2T6); test: inhibition of LPI-stimulated GPR55 beta-arrestin translocation – imaging, U2OS, beta-arrestin-GFP, LPI agonist, primary screen (AID 2013); type: functional;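 note: antagonist potency measured as reduced agonist-driven arrestin aggregation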
Cytochrome P450 2C19 = Cytochrome P450 2C19 (Homo sapiens, UniProt P33261); test: Cytochrome panel assay with activity outcomes. Panel member name: p450-cyp2c19 Compounds with AC50 equal or less than 10 uM are considered active; type: functional; conditions: read-out: AC50
Cytochrome P450 1A2 = biological target: T5, Cytochrome P450 1A2 (Homo sapiens, UniProt P05177);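 note: PubChem cytochrome P450 panel assay, CYP1A2 panel member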
T5 sequence (P05177 whole entry): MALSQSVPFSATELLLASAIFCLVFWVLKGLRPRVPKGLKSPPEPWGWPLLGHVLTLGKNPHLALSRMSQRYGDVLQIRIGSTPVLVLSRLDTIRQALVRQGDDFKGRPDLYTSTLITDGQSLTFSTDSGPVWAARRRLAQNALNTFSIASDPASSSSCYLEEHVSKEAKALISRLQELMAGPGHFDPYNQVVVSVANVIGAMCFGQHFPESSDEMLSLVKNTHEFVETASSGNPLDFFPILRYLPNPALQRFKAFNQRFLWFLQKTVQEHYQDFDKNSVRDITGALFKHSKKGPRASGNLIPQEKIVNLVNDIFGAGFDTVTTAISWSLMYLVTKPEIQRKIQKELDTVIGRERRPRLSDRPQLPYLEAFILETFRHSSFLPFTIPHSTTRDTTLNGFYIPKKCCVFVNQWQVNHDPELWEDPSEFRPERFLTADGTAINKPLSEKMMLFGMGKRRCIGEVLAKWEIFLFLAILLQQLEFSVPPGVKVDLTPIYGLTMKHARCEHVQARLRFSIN

Cytochrome P450 3A4 = Cytochrome P450 3A4 (Homo sapiens, UniProt P08684);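 note: CYP3A4 tested as one member of a cytochrome P450 panel screen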
[28] = biological target: T6, Type-1 angiotensin II receptor (Homo sapiens, UniProt P30556); test: antagonism of angiotensin II type 1 receptor – cell-based, uHTS hits, selectivity assay for APJ receptor antagonist project, dose response (AID 463214); type: functional;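 note: antagonist potency against angiotensin II stimulated AT1 response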
T6 sequence (P30556 whole entry): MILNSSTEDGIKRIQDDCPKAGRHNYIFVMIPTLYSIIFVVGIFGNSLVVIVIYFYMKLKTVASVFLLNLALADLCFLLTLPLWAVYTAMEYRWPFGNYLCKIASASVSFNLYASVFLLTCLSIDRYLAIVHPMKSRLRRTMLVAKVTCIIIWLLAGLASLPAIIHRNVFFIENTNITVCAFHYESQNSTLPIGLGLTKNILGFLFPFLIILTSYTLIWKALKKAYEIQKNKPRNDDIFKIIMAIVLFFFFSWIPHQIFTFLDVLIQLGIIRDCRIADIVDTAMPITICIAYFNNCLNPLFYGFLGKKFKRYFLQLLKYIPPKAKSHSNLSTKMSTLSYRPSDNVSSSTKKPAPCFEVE

Beta-galactosidase = Beta-galactosidase (Escherichia coli, UniProt Q8VNN2); test: PubChem AID 485352; type: functional

## C[N+](C)(C)C/C=C1/COCO1
Mucolipin-3
  EC50: 4.76 µM (active)
cells
  EC50: > 29.9 µM (inactive)
[1]
  IC50: 1.89 µM (active)
Galanin receptor type 3
  IC50: > 29.9 µM (inactive)
[2]
  IC50: 1.89 µM (active)
Ion channel NompC
  EC50: 17.6 µM (not active)

## CCOc1ccc(-n2cccc2C=O)cc1
[3]
  AC50: 7.29 µM (active)

## COc1ccc(N)cc1-n1cnnn1
[4]
  IC50: > 100 µM (active)

## Cn1c(/C=C/c2ccc(Br)cc2)c([N+](=O)[O-])c(=O)n(C)c1=O
Vero [5]
  CC50: 12.1 µM (active)
Vero [6]
  IC50: 23.9 µM (active)
HEK293 [7]
  IC50: 14.3 µM (active)
HEK293 [8]
  IC50: 4.87 µM (active)
Vero [9]
  CC50: 16 µM (active)
HEK293 [10]
  EC50: 14.4 µM (active)
HEK293 [11]
  IC50: 4.31 µM (active)
[12]
  CC50: 21.9 µM (active)

## Cc1cc(NC(=O)c2cc(F)c(F)cc2Cl)no1
[3]
  AC50: 24 µM (active)

## CC(C)c1ccc(OCC(=O)NC(=S)Nc2ccc3c4c(cccc24)CC3)cc1
[13]
  EC50: > 79.4 µM (not active)
[14]
  EC50: > 79.4 µM (not active)
[15]
  EC50: > 79.4 µM (not active)

## CC(C)(C)c1ccc2c(c1)OC(C(=O)N/N=C\c1ccc(-c3cccc(C(=O)O)c3)o1)CO2 (stereo not given)
[16]
  IC50: > 50 µM (active)

## CS(=O)(=O)c1ccc(Sc2nc3ccccc3s2)c([N+](=O)[O-])c1
[17]
  IC50: 79.5 µM (inactive)
[18]
  AC50: 9.73 µM (active)
[19]
  AC50: 31.2 µM (active)
Vero [9]
  CC50: 18.3 µM (active)
HEK293 [20]
  AC50: 4.87 µM (active)

## COc1ccc(-c2csc(NC(=O)c3ccccc3NS(=O)(=O)c3ccc(C)cc3)n2)cc1
[21]
  IC50: 6.12 µM (active)
Fatty acid synthase [22]
  IC50: 10.2 µM (active)
[23]
  IC50: 60.1 µM (active)
[16]
  IC50: 3.03 µM (active)
Fatty acid synthase [24]
  IC50: 6.07 µM (active)

## COc1ccc(/C=C2/SC(N/N=C3\CC4CCC3(C)C4(C)C)=NC2=O)cc1 (stereo not given)
Streptococcus
  EC50: > 150 µM (not active)
[25]
  EC50: 3.92 µM (active)
[26]
  EC50: 0.22 µM (active)
Streptokinase A
  EC50: > 150 µM (not active)
[27]
  IC50: 6 µM (active)
Cytochrome P450 2C19
  AC50: 20 µM (inconclusive)
Cytochrome P450 1A2
  AC50: 14.1 µM (inconclusive)
Cytochrome P450 3A4
  AC50: 12.6 µM (inconclusive)

## CCn1c(SCC(=O)Nc2ccc(Cl)cc2)nc2nc3c(cc2c1=O)CCCC3
[13]
  EC50: > 79.4 µM (not active)
[14]
  EC50: > 79.4 µM (not active)
[15]
  EC50: > 79.4 µM (not active)

## COc1ccc(NC2(c3ccc(Cl)cc3)C(=O)c3ccccc3C2=O)cc1
[4]
  IC50: > 100 µM (active)
[28]
  IC50: 17.9 µM (active)
Beta-galactosidase
  EC50: > 40 µM (inactive)
